Results: patent US20140243332A1, “METHODS OF TREATING CANCERS CHARACTERIZED BY ABERRENT ROS1 ACTIVITY” (Oregon Health & Science University, priority 2013, published 2014)

Key:
[1] = tested on: FIG-ROS and ROS-1 effector pathway phosphorylation; test: Immunoblot of FIG-ROS tumor lysates after oral gavage; format: in vivo, mice; settings: 25 mg/kg oral gavage
Protocol: FIG. 3D is an image of an immunoblot of tumor lysates probed for phosphorylated and total ROS1, phosphorylated and total Shpt, phosphorylated and total Stat3, phosphorylated and total Src as well as tubulin as a loading control.
(§1) Ba/F3 FIG-ROS, Ba/F3 SLC-ROS, HCC78 and mCC cell lines were treated with the indicated concentration of inhibitors for 1-2 hours. […] The protein content of the cell lysates was determined and lysates were either used for immunoprecipitation where indicated or extracted with SDS Sample buffer for 15 minutes at 80° C. Proteins were transferred to Immobilon-FL membranes and immunoblotted with antibodies specific for phospho-ROS1 (Cell Signaling Technology (CST) #3078), total ROS1 (CST #3266), phopsho-Shp2 (CST #3751), total Shpt (CST #3752), phospho-Stat3 (CST #9145), total Stat3 (CST #4904), phospho-Erk1/2 (CST #9101), total Erk2 (Santa Cruz #SC-1647), phospho-S6 (CST #4858), total S6 (CST #2216), phospho-Src (CST #2105), total Src (CST #2110), α-tubulin (Sigma T6199), or β-actin (Sigma A1978) as indicated. Images of the blots were generated by the LI-COR Odyssey® imaging system, following the manufacturer's protocol for immunoblot detection with use of IR-dye conjugated secondary antibodies.
Concomitant with diminished FIG-ROS activation, phosphorylation of Shpt and Stat3, but not Src is inhibited in the treated tumors.

[2] = target: Ba/F3 FIG-ROS kinase domain mutants (Homo sapiens, UniProt P08922, cells depend on it, form not given); test: Cell viability assay, all tested Ba/F3 FIG-ROS kinase domain mutants; format: cell-based; settings: V2098I, G1971E, L1982F, C2060G, L1947R, E1935G; read-out: IC50 across all tested FIG-ROS mutants
Protocol: (§2) Cell lines were distributed in 96-well plates and incubated with the indicated concentrations of inhibitor for 72 hours. […] Ba/F3 cell lines were plated at 4×10^3 cells/well. HCC78 and mCC cell lines were plated at 1.5×10^3 cells/well. All cell types were seeded in a final volume of 80 microliters. A 20 microliter volume of five-fold concentrated inhibitor media was added. Cell proliferation was measured using a […] viability assay (CellTiter96 Aqueous One® Solution; Promega). A BioTek Synergy 2® plate reader was used to read the absorbance at 490 nm at 30 minutes and 1 hour after addition of MTS. To facilitate comparison between experiments, the raw MTS absorbance of vehicle (0.1% DMSO) treated cells was set to 1 and absorbance from inhibitor treated wells was normalized to the vehicle treated value. […] Data were normalized using Microsoft Excel® and further non-linear regression curve fit analysis of the normalized data for determination of IC50 was performed using Graphpad Prism® software.
(§3) The FIG-ROS-S fusion gene was synthesized using the GeneArt® service. FIG-ROS-S is denoted as FIG-ROS herein.

FIG-ROS tumors = test: In vivo treatment of mice bearing subcutaneous FIG-ROS cholangiocarcinoma tumors; settings: 25 mg/kg oral gavage once daily, 9 days, immunodeficient mice; foretinib p<0.0001 for Lines 4 and 6
Protocol: Mouse chorangiocarcinoma cell lines expressing either FIG-ROS or shPten were subcutaneously injected into 11 week old female immune-deficient mice. […] Caliper measurements were taken at the time of treatment initiation and 24 hrs after administration of the last dose. Data in waterfall plots is calculated as follows: ((tumor volume Tend/tumor volume T0)−1). Caliper measurements of tumors were taken at T0 and Tend. Tumor volume is calculated as: 0.5*L*Ŵ2(L>W).
Tumors were formed by subcutaneous injection of the murine cholangiocarcinoma cell lines described above in the flanks of immunodeficient mice. […] Caliper measurements were taken at the time of treatment initiation (Ti) and 24 h after administration of the last dose (Tend).

[3] = target: Ba/F3 FIG-ROS C2060G cells (Homo sapiens, UniProt P08922, C2060G, cells depend on it); test: Cell viability assay, Ba/F3 FIG-ROS C2060G; format: cell-based; settings: Table 3, Ba/F3 FIG-ROS C2060G; nM; read-out: IC50 (the source's name)
Protocol: as §2, §3

SLC-ROS = SLC-ROS (Homo sapiens, UniProt P08922); test: Immunoblot of Ba/F3 SLC-ROS lysates; format: cell-based; set-up: SLC34A2 N-terminal portion, fusion partner; expressed in transfected cells; host or cells: Ba/F3 (A15), retroviral pMIG; the other entry of the earlier key: SLC34A2 (O95436, Sodium-dependent phosphate transport protein 2B); settings: Ba/F3 SLC-ROS cells, increasing amounts, immunoblot FIG. 1C
Protocol: FIG. 1C is an image of an immunoblot of lysates of Ba/F3 FIG-ROS and Ba/F3 SLC-ROS and the indicated downstream effectors after treatment with the indicated compounds. Images shown are representative of three independent experiments.
as §1

Ba/F3 ALK F1174L cells = Ba/F3 ALK F1174L cells (Homo sapiens, UniProt Q9UM73, F1174L, cells depend on it); test: Cell viability (MTS) assay, Ba/F3 ALK F1174L; format: cell-based; settings: 72 hours, read-out: IC50 (the source's name)

Q: How did the “intra-tumoral phosphorylation of Shpt and Stat3” value ([1]; FIG-ROS tumors) turn out when `COc1cc2c(Oc3ccc(NC(=O)C4(C(=O)Nc5ccc(F)cc5)CC4)cc3F)ccnc2cc1OCCCN1CCOCC1` [foretinib, N1′-[3-fluoro-4-[[6-methoxy-7-(3-morpholinopropoxy)-4-quinolyl]oxy]phenyl]-N1-(4-fluorophenyl)cyclopropane-1,1-dicarboxamide] was run?
A: is inhibited

Q: And the “intra-tumoral phosphorylation of Src” value ([1]; FIG-ROS tumors)?
A: but not Src

Q: And the “intra-tumoral FIG-ROS phosphorylation” value ([1]; tumors harvested at 1, 2, 4 and 8 hours)?
A: Rapid and robust inhibition

Q: And the GI50 [2]?
A: < 20 nM

Q: And the FIG-ROS tumor volume (FIG-ROS tumors)?
A: dramatically and significantly reduced

Q: What about the GI50 [3] of the same molecule?
A: 13.6 nM

Q: And the “autophosphorylation of SLC-ROS and ROS1-driven signaling (phospho-Shp2, phospho-ERK1/2)” value (SLC-ROS)?
A: dose dependent decrease

Q: And the GI50 (Ba/F3 ALK F1174L cells)?
A: 1800 nM
